Reference: ChEMBL document CHEMBL5727056, “Substituted indazoles, methods for the production thereof, pharmaceutical preparations that contain said new substituted indazoles, and use of said new substituted indazoles to produce drugs” (2019)

Target: T1, Interleukin-1 receptor-associated kinase 4 (Homo sapiens, UniProt Q9NWZ3)
T1 sequence (Q9NWZ3 whole entry): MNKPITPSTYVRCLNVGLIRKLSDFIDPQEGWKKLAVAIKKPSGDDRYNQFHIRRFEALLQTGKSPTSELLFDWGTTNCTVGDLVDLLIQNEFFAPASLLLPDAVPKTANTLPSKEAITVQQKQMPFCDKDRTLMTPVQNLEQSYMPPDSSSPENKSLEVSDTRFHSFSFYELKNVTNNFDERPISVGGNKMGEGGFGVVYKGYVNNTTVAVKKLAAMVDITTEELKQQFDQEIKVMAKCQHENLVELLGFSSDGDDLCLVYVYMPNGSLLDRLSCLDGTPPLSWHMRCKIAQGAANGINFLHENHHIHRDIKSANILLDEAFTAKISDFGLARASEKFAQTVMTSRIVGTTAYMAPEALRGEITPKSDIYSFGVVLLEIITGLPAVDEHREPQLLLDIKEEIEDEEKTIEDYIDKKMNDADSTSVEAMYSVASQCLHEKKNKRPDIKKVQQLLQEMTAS
Assay: IRAK4 Kinase Assay: For the assay, 11 different concentrations in the range from 20 μM to 0.073 nM were prepared from a 2 mM DMSO solution of the test substance. 50 nl of the respective solution were pipetted into a black low-volume 384-well microtitre plate (Greiner Bio-One, Frickenhausen, Germany), 2 μl of a solution of IRAK4 in assay buffer [50 mM HEPES pH 7.5, 5 mM MgCl2, 1.0 mM …

SMILES: COCCn1cc2cc(NC(=O)c3cccc(C(F)(F)F)n3)c(CO)cc2n1
- IC50: 136 nM
